pEC50: −log10 of the molar value. In brackets after ≈: the same amount, converted by molar mass. Activity calls are given as the source filed them. No cut-off for these calls is given here.
Legend:
[1] = Stimulation of VEGF gene expression in human THP1 cells assessed as change in VEGF mRNA level incubated for 2 hrs by quantitative real time RT-PCR method relative to control; assay type: functional, cell-based; conditions: THP-1
[2] = target: T1, Relaxin receptor 1 (Homo sapiens, UniProt Q9HBX9); assay: Agonist activity at RXFP1 receptor in human THP1 cells assessed as stimulation of cAMP production incubated for 30 mins by HTRF assay; assay type: functional, cell-based, THP-1
T1 sequence (Q9HBX9 whole entry): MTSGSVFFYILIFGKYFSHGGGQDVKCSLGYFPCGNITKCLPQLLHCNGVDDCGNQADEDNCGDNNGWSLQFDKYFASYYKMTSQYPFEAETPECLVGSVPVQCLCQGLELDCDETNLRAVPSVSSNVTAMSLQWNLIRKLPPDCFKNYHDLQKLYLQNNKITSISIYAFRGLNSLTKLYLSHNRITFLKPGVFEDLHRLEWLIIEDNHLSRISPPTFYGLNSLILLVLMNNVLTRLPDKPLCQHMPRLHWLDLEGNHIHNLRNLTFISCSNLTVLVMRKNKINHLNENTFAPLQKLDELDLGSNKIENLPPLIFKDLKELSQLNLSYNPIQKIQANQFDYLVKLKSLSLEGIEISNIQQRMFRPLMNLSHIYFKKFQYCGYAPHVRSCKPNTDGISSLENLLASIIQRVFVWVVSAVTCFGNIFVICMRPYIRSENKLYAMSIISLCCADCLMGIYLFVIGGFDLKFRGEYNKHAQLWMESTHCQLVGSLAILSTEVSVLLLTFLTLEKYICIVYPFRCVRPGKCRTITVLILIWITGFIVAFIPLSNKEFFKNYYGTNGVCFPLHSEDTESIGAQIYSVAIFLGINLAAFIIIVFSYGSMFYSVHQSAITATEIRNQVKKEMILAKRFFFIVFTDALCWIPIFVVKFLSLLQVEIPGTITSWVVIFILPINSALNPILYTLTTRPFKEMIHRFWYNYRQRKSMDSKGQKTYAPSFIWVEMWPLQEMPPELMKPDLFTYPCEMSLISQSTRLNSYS

[3] = target: T1, Relaxin receptor 1; assay: Agonist activity at RXFP1 receptor (unknown origin) expressed in HEK293 cells assessed as stimulation of cAMP production incubated for 30 mins by TR-FRET based HTRF assay; assay type: functional, cell-based
[4] = target: T2, Relaxin receptor 1 (Homo sapiens) (UniProt Q9HBX9); assay: Agonist activity at RXFP1 receptor (unknown origin) expressed in HEK293 cells assessed as stimulation of cAMP production incubated for 30 mins by TR-FRET based HTRF assay relative to forskolin; assay type: functional, cell-based
T2 sequence (whole entry): T1 sequence (Q9HBX9 whole entry)

[5] = Cytotoxic activity against HEK293 cells assessed as reduction in cell viability by measuring ATP level incubated for 72 hrs by ATP cytotoxicity assay relative to control; assay type: cell-based; conditions: human, read-out: %max
[6] = target: T3, Relaxin receptor 2 (Homo sapiens, UniProt Q8WXD0); assay: Agonist activity at RXFP2 receptor (unknown origin) expressed in HEK293 cells assessed as stimulation of cAMP production incubated for 30 mins by HTRF assay relative to control; assay type: functional, cell-based
[7] = target: T4, Vasopressin V1b receptor (Homo sapiens) (UniProt P47901); assay: Agonist activity at vasopressin receptor 1b (unknown origin) expressed in HEK293 cells assessed as stimulation of cAMP production incubated for 30 mins by HTRF assay relative to control; assay type: functional, cell-based
T4 sequence (whole entry): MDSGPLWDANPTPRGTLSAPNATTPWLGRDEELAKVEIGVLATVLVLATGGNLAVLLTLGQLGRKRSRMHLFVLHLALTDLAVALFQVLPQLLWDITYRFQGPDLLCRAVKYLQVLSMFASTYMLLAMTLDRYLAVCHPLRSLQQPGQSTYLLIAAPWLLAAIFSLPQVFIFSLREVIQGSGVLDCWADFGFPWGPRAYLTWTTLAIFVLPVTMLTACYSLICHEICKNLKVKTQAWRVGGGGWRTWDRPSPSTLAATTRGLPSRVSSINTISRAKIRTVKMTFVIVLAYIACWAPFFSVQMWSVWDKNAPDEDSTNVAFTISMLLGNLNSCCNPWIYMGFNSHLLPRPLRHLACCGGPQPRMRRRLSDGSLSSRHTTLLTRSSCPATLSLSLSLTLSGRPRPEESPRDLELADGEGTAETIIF

[8] = target: T3, Relaxin receptor 2; assay: Agonist activity at RXFP2 receptor (unknown origin) expressed in HEK293 cells assessed as stimulation of cAMP production incubated for 30 mins by HTRF assay; assay type: functional, cell-based
[9] = target: T5, Vasopressin V1b receptor (Homo sapiens, UniProt P47901); assay: Agonist activity at vasopressin receptor 1b (unknown origin) expressed in HEK293 cells assessed as stimulation of cAMP production incubated for 30 mins by HTRF assay; assay type: functional, cell-based
T5 sequence (P47901 whole entry): T4 sequence (whole entry)

[10] = Solubility in PBS buffer; assay type: physicochemical

T3 sequence (Q8WXD0 whole entry): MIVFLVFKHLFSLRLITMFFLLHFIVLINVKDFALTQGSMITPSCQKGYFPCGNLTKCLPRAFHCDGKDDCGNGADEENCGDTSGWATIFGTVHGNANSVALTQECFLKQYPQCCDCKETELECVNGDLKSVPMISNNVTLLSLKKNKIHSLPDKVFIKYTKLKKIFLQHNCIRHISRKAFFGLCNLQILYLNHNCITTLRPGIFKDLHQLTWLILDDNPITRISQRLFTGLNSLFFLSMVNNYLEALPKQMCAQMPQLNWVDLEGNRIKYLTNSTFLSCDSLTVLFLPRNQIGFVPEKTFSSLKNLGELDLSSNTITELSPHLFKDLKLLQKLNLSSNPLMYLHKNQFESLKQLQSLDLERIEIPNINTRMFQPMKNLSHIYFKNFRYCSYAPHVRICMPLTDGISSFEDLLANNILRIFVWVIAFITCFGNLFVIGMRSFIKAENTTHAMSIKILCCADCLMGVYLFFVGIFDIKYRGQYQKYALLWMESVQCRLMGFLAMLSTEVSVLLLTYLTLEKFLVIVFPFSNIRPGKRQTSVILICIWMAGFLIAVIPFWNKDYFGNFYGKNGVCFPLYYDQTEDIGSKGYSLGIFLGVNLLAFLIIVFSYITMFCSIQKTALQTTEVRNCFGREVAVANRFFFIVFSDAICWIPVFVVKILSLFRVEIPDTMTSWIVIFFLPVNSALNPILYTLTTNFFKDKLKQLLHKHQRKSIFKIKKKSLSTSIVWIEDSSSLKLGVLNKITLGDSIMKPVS

| SMILES | AC50 ([3]; read-out: AC50) | %max [4] | other results |
| --- | --- | --- | --- |
| COc1ccccc1C(=O)Nc1ccccc1C(=O)Nc1cccc(S(=O)(=O)C(F)(F)F)c1 | 188 nM | 99% | fold change (FC) [1]: 1.4; pEC50 [2]: 6.45 |
| O=C(Nc1cccc(S(=O)(=O)C(F)(F)F)c1)c1ccccc1NC(=O)c1ccccc1OCC(F)(F)F | 67 nM | 97% | fold change (FC) [1]: 1.3; pEC50 [2]: 6.97 |
| O=C(Nc1cccc(C(F)(F)F)c1)c1ccc(NC(=O)C2CCCCC2)cc1 |  | inactive | AC50 ([3]; hek293): Not Active |
| CCC(CC)C(=O)Nc1ccccc1C(=O)Nc1cccc(C(F)(F)F)c1 | 5290 nM | 59% |  |
| COCCNc1ccccc1C(=O)Nc1cccc(C(F)(F)F)c1 | 59300 nM | 63% |  |
| CC(C)(C)c1cccc(NC(=O)c2ccccc2NC(=O)C2CCCCC2)c1 | 2650 nM | 70% |  |
| O=C(Nc1cccc([N+](=O)[O-])c1)c1ccccc1NC(=O)C1CCCCC1 | 5930 nM | 93% |  |
| O=C(Nc1ccccc1F)c1ccccc1NC(=O)C1CCCCC1 |  | inactive | AC50 ([3]; hek293): Not Active |
| O=C(Nc1ccc(C(F)(F)F)cc1)c1ccccc1NC(=O)C1CCCCC1 | 94000 nM | 46% |  |
| O=CNc1ccccc1C(=O)Nc1cccc(C(F)(F)F)c1 | 47100 nM | 78% |  |
| O=C(Nc1cccc(C(F)(F)F)c1)c1ccccc1NC(=O)C1CCC1 | 2970 nM | 75% |  |
| CCOc1ccccc1C(=O)Nc1cnccc1C(=O)Nc1cccc(S(=O)(=O)C(F)(F)F)c1 | 2970 nM | 99% |  |
| O=C(Nc1cccc(S(=O)(=O)C(F)(F)F)c1)c1ccccc1NC(=O)C1CCCCC1 | 1060 nM | 87% |  |
| O=C(Nc1ccccc1)c1ccccc1NC(=O)C1CCCCC1 | 94000 nM | 57% |  |
| O=C(Nc1ccccc1C(=O)Nc1cccc(C(F)(F)F)c1)c1cccc([N+](=O)[O-])c1 | 1060 nM | 84% |  |
| O=C(Nc1cccc(C(F)(F)F)c1)c1ccccc1NCCc1ccccc1 | 9400 nM | 83% |  |
| CC(C)c1cccc(NC(=O)c2ccccc2NC(=O)C2CCCCC2)c1 | 5290 nM | 66% |  |
| O=C(NCc1ccccc1C(F)(F)F)c1ccccc1NC(=O)C1CCCCC1 |  | inactive | AC50 ([3]; hek293): Not Active |
| CCOc1ccccc1C(=O)Nc1ncccc1C(=O)Nc1cccc(S(=O)(=O)C(F)(F)F)c1 | 1670 nM | 98% |  |
| O=C(Nc1cccc(C(F)(F)F)c1)c1ccccc1NCc1ccccc1 | 47100 nM | 69% |  |
| CN(C)CCCOc1ccccc1C(=O)Nc1cccc(C(F)(F)F)c1 |  | inactive | AC50 ([3]; hek293): Not Active |
| O=C(Nc1ccccc1C(=O)Nc1cccc(C(F)(F)F)c1)c1ccno1 | 14900 nM | 93% | Emax at 72 h [5]: -73%; %max [6]: 38%; %max [7]: < 30%; AC50 ([8]; read-out: AC50): 7470 nM; AC50 [9]: Not Active; solubility [10]: < 1.1 µM |

The next lines start with results.

| AC50 ([3]; read-out: AC50) | %max [4] | SMILES | other results |
| --- | --- | --- | --- |
| 11800 nM | 90% | O=C(Nc1cccc(C(F)(F)F)c1)c1ccccc1NC(=O)c1cccc2nc[nH]c12 | Emax at 72 h [5]: -76%; %max [6]: < 30%; %max [7]: < 30%; AC50 ([8]; hek293): Not Active; AC50 [9]: Not Active; solubility [10]: 6.3 µM (≈ 2.67 µg/mL) |
| 265 nM | 94% | CCOc1ccccc1C(=O)Nc1ccccc1C(=O)Nc1cccc(C(F)(F)F)c1 | fold change (FC) [1]: 1.9; pEC50 [2]: 6.33 |
|  | 99% | CCOc1ccccc1C(=O)Nc1ccccc1C(=O)Nc1cccc(S(=O)(=O)C(F)(F)F)c1 | fold change (FC) [1]: 2.3; pEC50 [2]: 6.44 |
| 52 nM | 98% | CCCOc1ccccc1C(=O)Nc1ccccc1C(=O)Nc1cccc(S(=O)(=O)C(F)(F)F)c1 | fold change (FC) [1]: 1.5; pEC50 [2]: 6.98 |
| 1180 nM | 96% | O=C(Nc1cccc(C(F)(F)F)c1)c1ccccc1NC(=O)c1ccccc1OC(F)(F)F |  |
| 59300 nM | 57% | COc1ccccc1CNc1ccccc1C(=O)Nc1cccc(C(F)(F)F)c1 |  |
| 74700 nM | 64% | CCOc1ccccc1C(=O)Nc1ccccc1C(=O)Nc1ccncc1 |  |
| 297 nM | 99% | COc1ccccc1C(=O)Nc1ccccc1C(=O)Nc1cccc(SC(F)(F)F)c1 | fold change (FC) [1]: 1.2; pEC50 [2]: 6.28 |
| 149000 nM | 37% | CCOc1ccccc1C(=O)Nc1ccccc1C(=O)Nc1cccnc1 |  |
| 2650 nM | 95% | O=C(Nc1ccccc1C(=O)Nc1cccc(C(F)(F)F)c1)c1ccc(Cl)cc1 |  |
|  | inactive | CCOc1ccccc1C(=O)Nc1ccccc1C(=O)Nc1cccc(C(=N)N)c1 | AC50 ([3]; hek293): Not Active |
| 747 nM | 98% | COCCOc1ccccc1C(=O)Nc1ccccc1C(=O)Nc1cccc(C(F)(F)F)c1 |  |
| 7470 nM | 80% | O=C(Nc1ccccc1C(=O)Nc1cccc(C(F)(F)F)c1)c1ccccc1I |  |
| 3740 nM | 92% | CNCCOc1ccccc1C(=O)Nc1ccccc1C(=O)Nc1cccc(C(F)(F)F)c1 |  |
| 1880 nM | 94% | COc1cccc(C(=O)Nc2ccccc2C(=O)Nc2cccc(C(F)(F)F)c2)c1 |  |
| 1880 nM | 96% | O=C(Nc1ccccc1C(=O)Nc1cccc(C(F)(F)F)c1)c1cccc(Cl)c1 |  |
| 2360 nM | 81% | O=C(Nc1ccccc1C(=O)Nc1cccc(C(F)(F)F)c1)c1ccco1 |  |
